For one assay, the target named is T1, Cdc7/Dbf4 complex (Homo sapiens, UniProt O00311).
T1 construct: Full-length Cdc7 co-expressed with full-length Dbf4; purchased Carna Biosciences (Kobe)
In words: Measurement of Cdc7 kinase inhibitory activity (Transcreener ADP HTRF assay). The conditions noted are these: Cdc7/Dbf4, 1.0 μm ATP, 10 μg/ml MCM2; for inhibitory rate (%) at 1 μM: test compound 1 μM; for inhibition at 1 µM: read-out: inhibitory rate (%) at 1 μM, test compound 1 μM. Type of assay: biochemical. Here is the method:
Full-length Cdc7 co-expressed with full-length Dbf4 was purchased from Carna Biosciences (Kobe). The enzyme activity of Cdc7/Dbf4 complex was detected by homogeneous time-resolved fluorescence method Transcreener ADP assay (Cisbio Inc., MA, U.S.A.). […] Free ADP produced by ATP hydrolysis was detected by Eu^3+-Cryptate-labeled anti-ADP monoclonal antibody competitively with d2-labeled ADP, and the production amount thereof was measured. The obtained time-resolved fluorescence resonance energy transfer signal was measured by EnVision (Perkin Elmer Inc., MA, U.S.A.). The inhibitory rate (%) of the test compound to Cdc7 was calculated by the following formula. Inhibitory rate(%)=(1−(count of test compound-blank)[…](control-blank))×100
The count of the Cdc7/Dbf4 reaction mixture under compound-free conditions was taken as the control, and that under compound-free and Cdc7/Dbf4-free conditions was taken as the blank.
Background: In TR-FRET formats the signal depends on donor and acceptor labels being close together.

The subject of assay [1] is human colorectal cancer cell Colo205. The assay can be described thus: Measurement of antitumor activity in human colorectal cancer cell Colo205 cancer bearing mouse. To be noted: Colo205 tumor growth ratio, mice. Type of assay: in vivo. As for the experimental part: Tumor volume=long diameter×short diameter×short diameter×(½) Mice having an engrafted tumor volume of about 200 mm^3 were selected, and 5 mice per group were used for the experiment. […] The tumor diameter was measured one day before the start of the administration and the next day of the completion of the administration and the tumor volume was calculated. The tumor growth ratio of the test compound administration group as compared to that of the control administration group was taken as T/C(%) and calculated by the following formula. T/C(%)=(tumor volume of test compound administration group after completion of administration−tumor volume of test compound administration group one day before start of administration)/(tumor volume of control administration group after completion of administration−tumor volume of control administration group one day before start of administration))×100

For assay [2], the system named is phosphorylated MCM2 (Ser40/Ser41). In words: Measurement of MCM2 phosphorylation inhibitory activity in human colorectal cancer cell Colo205 (Western blot). Type of assay: cell-based. To be noted: COLO 205, 8 h, read-out: inhibitory rate (%) at 1 μM. Here is the method: The MCM2 phosphorylation suppressive action of the compound of the present invention in human colorectal cancer cell Colo205 can be measured as follows. A cell suspension (500 μl) of human colorectal cancer cell Colo205 (purchased from ATCC) (50,000 cells/well) was plated in a 24 well plate, and cultured in a 5% carbon dioxide gas incubator at 37° C. for 1 day. […] The plate was washed with PBS, the cells were lysed in Laemmli Sample Buffer (BioRad), and cell lysate was treated at 95° C. for 5 min.
(In general: Immunoblotting shows a protein as a band on a membrane.)

Assay [3] has as its system human colorectal cancer cell Colo205. The assay can be described thus: Measurement of growth inhibitory activity on human colorectal cancer cell Colo205 (CellTiter-Glo). Type of assay: cell-based. To be noted: COLO 205, 72 h, read-out: inhibitory rate (%) at 1 μM. As for the experimental part:
The growth inhibition of colorectal cancer cell Colo205 with the compound of the present invention can be measured as follows.
A cell suspension (100 μl) of human colorectal cancer cell Colo205 (purchased from ATCC) (3,000 cells/well) was plated in a 96 well plate, and cultured in a 5% carbon dioxide gas incubator at 37° C. for 1 day. Each 2 μM test compound solution was added by 100 μl and the cells were cultured for 3 days. CellTiter-Glo™ Luminescent Cell Viability Assay reagent (50 μl, Promega) was added to the 96 well plate, the luminescence level was measured by a luminometer and the residual ATP amount was taken as the cell amount. The luminescence level of a well free of cell plating was taken as a blank. The cell proliferation inhibitory rate (%) of the test compound was calculated by the following formula. Inhibitory rate(%)=(1−(luminescence level of test compound—blank)[…](luminescence level of control group—blank))×100
(Cellular ATP, detected with luciferase, serves as a proxy for viable cell number.)

Assay [4] deals with phosphorylated MCM2 (Ser40/Ser41). In words: animal or person. To be noted: Mus musculus, COLO 205, po, 4 h, read-out: inhibitory rate (%).
Protocol: Human colorectal cancer cell Colo205 was suspended in 50% Matrigel solution, and transplanted into 6- to 7-week-old female BALB/c mice (CLEA Japan, Inc.) at 5.0×10^6 cells by subcutaneous injection. The diameter of the tumor engrafted in 7 to 14 days from the transplantation was measured, and the tumor volume was calculated by the following formula. Tumor volume=long diameter×short diameter×short diameter×(½)
A suspension of the test compound in 0.5% methylcellulose solution (Wako Pure Chemical Industries, Ltd.) was orally administered at a dose shown in the Table to mice having a tumor volume of 150-600 mm^3. The tumor was removed under ether anesthesia at 4 hr after administration of the test compound, and homogenized in Cell Lysis Buffer (Cell Signaling). Using BCA Protein assay kit (Thermo Scientific), the protein in the tumor lysate was quantified, and the protein amount was adjusted. The above-mentioned protein solution was treated with Laemmli Sample Buffer (BioRad) at 95° C. for 5 min.
Then, SDS-PAGE was performed and the protein was transferred onto a PVDF membrane by using iBlot™ gel transfer system (Invitrogen). […] The membrane was washed in the same manner as above, chemical luminescence of antibody-labeled phosphorylated MCM2 protein using SuperSignal West FemtoMaximum Sensitivity Substrate (Pierce Biotechnology) was detected by lumino image analyzer LAS-1000 (Fuji Film).
Using the anti-MCM2 antibody (Santa Cruzu Biotechnology, sc-9839) and HRP-labeled goat IgG polyclonal antibody (Santa Cruzu Biotechnology, sc-2020) and in the same manner as above, the MCM2 protein was detected.
The phosphorylated MCM2 specific activity of each sample was calculated by the following formula. Phosphorylated MCM2 specific activity=(phosphorylated MCM2 luminescence level-background)+(MCM2 luminescence level-background)
The phosphorylated MCM2 protein inhibitory rate (%) of the test compound was calculated by the following formula and shown in Table. […]
[5] abbreviates: 100 mg/kg orally twice a day for 14 days.

These results are taken from patent US9388195B2, “Heterocyclic compound” (Takeda Pharmaceutical Company Limited, priority 2010, dated 2016).

SMILES strings stand for the structures. Counter-ions that a name gives are not always drawn.

T1 sequence (O00311 whole entry): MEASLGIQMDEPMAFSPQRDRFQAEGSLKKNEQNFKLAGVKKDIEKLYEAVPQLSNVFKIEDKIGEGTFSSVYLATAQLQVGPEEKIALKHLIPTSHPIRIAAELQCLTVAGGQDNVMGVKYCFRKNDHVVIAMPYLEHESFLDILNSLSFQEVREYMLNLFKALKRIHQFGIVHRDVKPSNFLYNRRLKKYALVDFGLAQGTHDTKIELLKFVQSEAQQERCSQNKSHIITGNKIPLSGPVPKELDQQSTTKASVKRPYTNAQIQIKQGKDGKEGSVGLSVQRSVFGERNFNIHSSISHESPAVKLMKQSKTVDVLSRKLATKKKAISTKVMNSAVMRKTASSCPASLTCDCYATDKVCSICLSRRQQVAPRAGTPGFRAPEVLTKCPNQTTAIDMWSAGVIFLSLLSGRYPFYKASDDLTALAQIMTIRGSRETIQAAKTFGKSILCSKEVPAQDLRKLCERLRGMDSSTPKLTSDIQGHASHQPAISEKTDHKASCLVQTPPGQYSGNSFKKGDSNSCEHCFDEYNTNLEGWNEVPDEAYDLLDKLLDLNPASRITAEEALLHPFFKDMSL
T1 sequence (Q9UBU7 whole entry partner): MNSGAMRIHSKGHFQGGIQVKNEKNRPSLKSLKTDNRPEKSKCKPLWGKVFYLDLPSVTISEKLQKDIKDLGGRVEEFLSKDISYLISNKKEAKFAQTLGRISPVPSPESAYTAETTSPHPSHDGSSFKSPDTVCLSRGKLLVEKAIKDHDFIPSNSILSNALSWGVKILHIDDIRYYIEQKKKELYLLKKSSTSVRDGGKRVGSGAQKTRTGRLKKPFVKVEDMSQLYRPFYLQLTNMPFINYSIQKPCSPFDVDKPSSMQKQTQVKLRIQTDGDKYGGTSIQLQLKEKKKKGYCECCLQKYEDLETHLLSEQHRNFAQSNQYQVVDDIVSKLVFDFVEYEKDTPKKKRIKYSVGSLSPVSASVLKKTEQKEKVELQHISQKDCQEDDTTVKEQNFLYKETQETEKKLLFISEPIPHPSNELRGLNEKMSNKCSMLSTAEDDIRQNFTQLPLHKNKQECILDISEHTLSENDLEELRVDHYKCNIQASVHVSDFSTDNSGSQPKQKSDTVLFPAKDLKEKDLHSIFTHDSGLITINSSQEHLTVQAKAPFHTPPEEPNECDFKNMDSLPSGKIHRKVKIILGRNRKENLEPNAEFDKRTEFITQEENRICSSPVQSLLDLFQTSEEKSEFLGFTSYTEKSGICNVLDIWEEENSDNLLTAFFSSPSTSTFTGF

Consider `Cc1[nH]ncc1-c1cc2nc([C@H]3NC4CC3[C@H](F)C4)[nH]c(=O)c2s1` (single isomer, unassigned) [Example 175, 2-[(1R,3S,4R,5R) or (1S,3S,4S,5R)-5-fluoro-2-azabicyclo[2.2.1]hept-3-yl]-6-(5-methyl-1H-pyrazol-4-yl)thieno[3,2-d]pyrimidin-4 (3H)-one hydrochloride], for which the “inhibitory rate (%) at 1 μM” value against Cdc7/Dbf4 complex (hydrochloride) worked out at 105%. The “T/C (%)” value in assay [1] (50 mg/kg orally twice a day for 14 days) was 40.3%.

Consider `Cc1[nH]ncc1-c1cc2nc([C@@H]3CCCCN3)[nH]c(=O)c2s1` [Example 83, 6-(5-methyl-1H-pyrazol-4-yl)-2-[(2S)-piperidin-2-yl]thieno[3,2-d]pyrimidin-4 (3H)-one dihydrochloride], for which the inhibition at 1 µM in assay [2] was 97.6%; in assay [3] it was 76.6%. The “inhibitory rate (%) at 1 μM” value against Cdc7/Dbf4 complex (dihydrochloride) was 125.5%. Further, the “T/C (%)” value in assay [1] (setting [5]) came to 5.7%. In assay [4], the inhibition at 100 mg/kg is 71.8%.

For `Cc1[nH]ncc1-c1cc2nc([C@@H]3CC=CCN3)[nH]c(=O)c2s1` [Example 145, 6-(5-methyl-1H-pyrazol-4-yl)-2-[(2S)-1,2,3,6-tetrahydropyridin-2-yl]thieno[3,2-d]pyrimidin-4 (3H)-one dihydrochloride], the inhibition at 1 µM came out at 95.8% in assay [2], 126% on Cdc7/Dbf4 complex and 78.5% in assay [3]. In addition, in assay [1] (setting [5]), the “T/C (%)” value is recorded as −4.7%. For the same molecule, the inhibition at 100 mg/kg in assay [4] turned out to be 68.9%.

With `O=c1[nH]c([C@@H]2CCCCN2)nc2cc(-c3cn[nH]c3C(F)(F)F)sc12` [Example 161, 2-[(2S)-piperidin-2-yl]-6-[5-(trifluoromethyl)-1H-pyrazol-4-yl]thieno[3,2-d]pyrimidin-4 (3H)-one hydrochloride], the inhibition at 1 µM in assay [2] worked out at 96.2%; at Cdc7/Dbf4 complex, 102%; in assay [3], 78.6%. In addition, the “T/C (%)” value in assay [1] (setting [5]) is −3.6%. The inhibition at 100 mg/kg in assay [4] came to 80.9%.
